For 16 compounds, logP results are on record in the SangsterLogP compilation.

`CC(C)NC(=O)c1ccc2ccccc2c1` yielded a lipophilicity (logP) of 2.68.

`NC(=O)C(c1ccccc1)c1ccccc1` had a logP of 2.11.

`O=C(Nc1ccccc1)Nc1ccccn1` had a lipophilicity (logP) of 3.1.

In the case of `NC(=O)C(C(N)=O)c1ccccc1`, the logP was -0.07.

The compound `CC(C)NC(=O)Nc1ccccc1` displayed a logP of 1.84.

Turning to `O=C(CCl)Nc1sc2c(c1C(=O)c1ccccc1)CCCC2`, the logP turned out to be 4.58.

`c1ccc(CNc2nc3ccccc3[nH]2)cc1`: the logP is 2.92.

Compound `CNC(=O)Nc1ccccn1` came in with a logP of 0.8.

`COc1ccc(C(=O)Nc2nc3ccccc3[nH]2)cc1` had a logP of 2.89.

`CNc1ccccc1C(=O)OC` yielded a log partition coefficient (logP) of 2.97.

As for `CCc1ccccc1NC`, the log partition coefficient (logP) was 2.58.

The compound `CCC(=O)NC(=O)Nc1ccccc1` displayed a log partition coefficient (logP) of 2.19.

Consider `CC(C)NC(=O)c1cc2ccccc2oc1=O`, for which the logP was 2.13.

`CC(=O)Nc1ccccc1N` showed a logP of 0.13.

The compound `OCCNc1nc2ccccc2[nH]1` gave a logP of 1.1.

Compound `CC(C)Nc1ccccc1N` had a logP of 1.65.

As usually defined, the logP is the decadic logarithm of the partition coefficient of the neutral form, usually between octanol and water. Higher therefore signals a more lipophilic compound.
